Some test systems named below: SK-OV-3 ovarian; HT29 colon; SNB-19 CNS; SN12C renal; OVCAR-5 ovarian; HCC-2998 colon; NCI-H522 lung; COLO 205 colon; SW-620 colon; M14 melanoma; ACHN renal; RPMI-8226 leukemia; HOP-62 NSCLC; A549 NSCLC; EKVX NSCLC; SK-MEL-5 melanoma; IGROV1 ovarian; SF-539 CNS; MALME-3M melanoma; SK-MEL-2 melanoma.
Holding throughout (assay): NCI-60 cell line screen, 48 h

Structures are written as SMILES.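 Test compounds were applied to cells in 96-well plates for 48 hours at 5 doses. The concentration for full growth arrest is given as TGI.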

For the compound `COc1cc2cc(C(=O)N3CC(CCl)c4c3cc([N+](C)(C)Cc3ccc([N+](=O)[O-])n3C)c3ccccc43)[nH]c2c(OC)c1OC` (stereo not given), the TGI with SK-OV-3 ovarian was above 100 µM; in the experiment on HT29 colon it was above 100 µM; in the experiment on SNB-19 CNS it was above 100 µM; with SN12C renal, above 62.4 µM; with OVCAR-5 ovarian it was above 100 µM; with HCC-2998 colon, 2.48 µM. Moreover, the TGI in the experiment with NCI-H522 lung is 0.981 µM; with COLO 205 colon it was 7.36 µM; in the experiment on SW-620 colon, above 100 µM; in the experiment with M14 melanoma it was above 48 µM; in the experiment with ACHN renal, above 100 µM; in the experiment on RPMI-8226 leukemia it was 8.31 µM. Also, the TGI was above 100 µM in the experiment with HOP-62 NSCLC; 1.06 µM in the experiment with A549 NSCLC; 16.4 µM in the experiment with EKVX NSCLC; 4.18 µM in the experiment with SK-MEL-5 melanoma; 4.23 µM in the experiment on IGROV1 ovarian; 14.3 µM in the experiment with SF-539 CNS. Further, the figures for the TGI with MALME-3M melanoma and in the experiment with SK-MEL-2 melanoma were 25.6 µM and 1.5 µM, respectively.

With `Cc1cc2n([O-])cccc-2[n+](=O)c1`, the TGI in the experiment with SK-OV-3 ovarian, in the experiment on HT29 colon, in the experiment on SNB-19 CNS, in the experiment on SN12C renal, in the experiment with OVCAR-5 ovarian and in the experiment with HCC-2998 colon was above 100 µM each time. Moreover, the TGI in the experiment on NCI-H522 lung, with COLO 205 colon, in the experiment on SW-620 colon, with M14 melanoma, with ACHN renal and in the experiment on RPMI-8226 leukemia was above 100 µM each time. Also, the TGI with HOP-62 NSCLC, in the experiment with A549 NSCLC, with EKVX NSCLC, in the experiment with SK-MEL-5 melanoma, in the experiment on IGROV1 ovarian and with SF-539 CNS was above 100 µM in each case. Also, the TGI in the experiment on MALME-3M melanoma and in the experiment on SK-MEL-2 melanoma was above 100 µM each time.
